Source: patent publication US20040009904A1, “APL immunoreactive peptides, conjugates thereof and methods of treatment for aPL antibody-mediated pathologies” (priority 1995, published 2004)
pKd: −log10 of the molar value. Bridge positions count the residues as written; N and C are the ends. Peptide text beside a SMILES is read from it. * marks the point of attachment. FITC = O=C1OC2(c3ccc(O)cc3Oc3cc(O)ccc32)c2ccc(NC(=S)*)cc21

Experiments:
[1] = system: affinity-purified ACA-6501 aPL antibody; test: Resin-bound peptide binding of affinity-purified IgG aPL antibody; design: species or system human; settings: immunoconjugate color reaction, versus unrelated control peptide and normal IgG
Source text: Phage sequences obtained with affinity-purified ACA-6501 and found to be phage-ELISA-positive were synthesized on a solid support recently developed for combinatorial synthetic peptide libraries. This support, a Rapp resin, has a high peptide density and uses a hydrophilic polyethylene glycol spacer before the first amino acid is coupled. […] Similar results were obtained with the other phage-ELISA-positive peptides tested. In the experiment shown, resin peptide-bound affinity-purified ACA-6501 aPL antibody was detected by an immunoconjugate color reaction.

aPL sera = test: Resin-bound peptide binding survey of patient sera; design: species or system human
Source text: Two peptides were selected for aPL sera testing, one (5A12) representing the ACA-6501 screen and another one (4D3) representing the ACA-6626 screen. […] However, a significant degree of crossreactivity was detectable especially between ACA-6501 and ACA-6626.

ACA-6501 [2] = test: Phage-ELISA; assay type: binding, human; settings: phage clones coated on wells, affACA-6501 2.5 μg/mL
Experimental: This method of selecting phage requires very tight binding of the insert to the screening antibody. Phage are directly coated onto wells of a microtitration plate and incubated with the screening antibody. Following washes to remove unbound antibody, an anti-human IgG alkaline phosphatase conjugate is added to bind any aPL antibodies bound to the phage. APL antibodies are then detected by adding a calorimetric substrate to the well which will react with alkaline phosphatase according to methods well known in the art.
Three mL cultures were prepared from 35 clones previously isolated with affinity purified ACA-6501 in several phage library screens as well as one fUSE 2 phage clone lacking a peptide insert which was used as a control. After centrifugation for 3 minutes at 17,000×g, 100 μL from each phage supernatant (adjusted to −2×10^11 particles/mL, based on absorbance) was added to microtitration plate wells (Falcon, Becton-Dickinson Labware, Lincoln Park, N.Y.) and allowed to incubate overnight at 4° C. Following four washes with TBS 7.4, the plate was blocked with 125 μL of 0.5% BSA/TBS for 1 hour at RT. After another four TBS washes, 100 μL of affACA-6501 previously diluted to 2.5 μg/mL in TBS/BSA was added to each well and allowed to incubate 1 hour at 37° C. Following an additional four washes, 100 μL anti-human IgG diluted 1:1000 in TBS/0.5% Tween was added to each well. After 1 hour at RT, enzyme substrate was added and the incubation allowed to proceed for 2 hours. Following the addition of 50 μL 0.2 M Na2HPO4 to stop the reaction, absorbance was measured at 550 nm in the automated plate absorbance reader. […] The sequences for these clones are showvn in Table 2.

ACA-6701 = test: Direct binding fluorescence polarization binding assay (dbFP) and displacement kinetics; design: species or system human; settings: for pKd: dbFP
Source text: (§1) This assay detects direct binding of the peptide to aPL antibody. Since aPL antibodies bind to β2-GPI (the antigen), the ELISA competitive inhibition assay can show inhibition due to binding to β2-GPI as well inhibition due to binding of the peptide to the aPL antibody. Because binding to antibodies is required in order for the peptide to function as a Toleragen, it is essential to establish that a peptide can directly bind to an aPL antibody. This assay is used to determine the dissociation constants for peptides that bind to two aPL antibodies, ACA-6501 and ACA-6701. While the ELISA assay is useful for high throughput screening because it requires less antibody than the Fluorescence Polarization assay, however, ELISA-positive peptides should be further evaluated by the Fluorescence Polarization assay to determine whether they are capable of directly binding with aPL antibody.
(§2) The methodology is described in PanVera Application Guide (1994), PanVera Corporation. Briefly, a trace amount of fluorescein isothiocyanate (FITC) labeled peptide (CB2*-F) is titrated with antibody (ACA 6501 or 6701) and the polarization for the sample is plotted versus the antibody concentration. Polarization was measured with the PanVera Beacon instrument. Data were fitted to Equation 1. [formula]
where Y is the Y-axis value (milli-polarization units, mP), R is the total concentration of antibody receptor, PL is the polarization for free FITC-labeled peptide (F), and PH is the polarization for F complexed with R (FR). KD is the dissociation constant (reciprocal binding, constant) for F from the FR complex. For these equations to be valid, it must be true that F<<R. This titration is shown in FIGS. 22 and 23 for CB2*-F binding to ACA-6701 and ACA-6501 antibodies, respectively. […] Thus, CB2*-F binding to ACA-6701 is limited only by diffusion of these two molecules together.

ACA-6501 [3] = test: Direct binding fluorescence polarization binding assay (dbFP); design: species or system human
Source text: as §1
as §2, with “[formula] […]” for “[formula]”

ACA-6501 aPL antibody = test: Competitive binding peptide-ELISA, plates coated with tetravalent peptide ACA-6501/3B10; design: species or system human; settings: monomeric peptide, ACA-6501 serum
Source text: Once ELISA-positive peptides are identified, it is necessary to quantitate their relative binding affinity to the aPL antibodies and to determine whether or not two peptides bind the same population of antibodies in a given patient serum via a peptide-competition ELISA assay. In this assay, various monomeric peptides compete with tetravalent peptides coated on a microtitration plate well. To perform the assay, the peptides to be evaluated are synthesized as monomers, ie., without the lysine branches employed in the synthesis of the tetravalent peptides, using standard Fmoc chemistry. The monomeric peptides are then purified and dissolved at known concentrations. Wells of a microtitration plate are coated with a tetravalent peptide known to bind to the aPL antibody. Serial dilutions of the monomeric peptides are incubated with a constant dilution of the aPL antibody. The dilution of the aPL antibody was previously determined by titering the antibody against the tetravalent peptide and selecting a dilution on the downslope of the titration curve. After incubating the antibody and monomeric peptides for one hour, the antibody/peptide solutions are added to the microtitration wells and a standard […] ELISA is performed. The concentration of each monomeric peptide that decreases binding of the aPL antibody with the tetravalent peptide is determined by plotting the calorimetric readings obtained for each well. The 50% inhibition point is used as the measure of the relative strength of binding for the monomeric peptides.
(A) Each well of an Immulon II plate (Dynatech Laboratories, Inc., Chantilly Va.) was coated with 100 μL of a solution containing 10 μg tetravalent peptide ACA 6501/3B10 in 50 mM sodium carbonate, pH 9.5, containing 35 mM sodium bicarbonate (Fisher Scientific, Pittsburgh, Pa., reagent grade) for at least 1 hour at RT, except for three wells used as blank controls. […]

Structure (SMILES): CC[C@H](C)[C@@H]1NC(=O)[C@H](CC(C)C)NC(=O)[C@@H](NC(=O)[C@@H]2CCCN2C(=O)CNC(=O)[C@H](C)N)CSSC[C@@H](C(=O)N2CCC[C@H]2C(=O)NCC(=O)O)NC(=O)[C@H](CCCNC(=N)N)NC(=O)[C@H](CC(=O)O)NC(=O)[C@@H]2CCCN2C(=O)[C@H](C)NC(=O)[C@H](CC(C)C)NC1=O [5A12, CLILAPDRC]
- binding of affinity-purified ACA-6501 to resin-bound peptide [1]: dramatically outperformed an unrelated control peptide while not binding normal IgG
- pathologic sera (moderate to high GPL) with detectable peptide binding (aPL sera; 13 pathologic sera): 8 of the 13
- control sera (low or no GPL score) with low peptide binding (aPL sera; 19 patient sera): 2 out of 19
- signal in the phage-ELISA (ACA-6501 [2]): significant signals

Structure (SMILES): CC[C@H](C)[C@@H]1NC(=O)[C@@H](NC(=O)[C@@H]2CCCN2C(=O)CNC(=S)Nc2ccc3c(c2)C(=O)OC32c3ccc(O)cc3Oc3cc(O)ccc32)CSSC[C@@H](C(=O)NCC(=O)O)NC(=O)[C@H](CCCNC(=N)N)NC(=O)[C@H](CC(=O)O)NC(=O)[C@H](CCCNC(=N)N)NC(=O)[C@H](C)NC(=O)[C@H](CC(C)C)NC(=O)[C@H](CC(C)C)NC1=O [CB2*-F, FITC-GPCILLARDRCG] ({FITC}-GPCILLARDRCG-OH; disulfide 3-11)
- pKd (ACA-6701; from Equation 1, not corrected for antibody bivalency): 6.59
- pKd (ACA-6701; multiplied by 2 to correct for antibody bivalency): 6.29
- dissociation rate constant Koff (ACA-6701; displacement of CB2*-F from 6701 by slight excess of CB2*): 0.0184 s⁻¹
- association rate constant Kon (ACA-6701; from KD and Koff, after correcting for antibody bivalency): 36000 M⁻¹ s⁻¹
- pKd (ACA-6501 [3]; dbFP titration of FIG. 24, from Equation 1, not corrected for antibody bivalency): 6.62
- pKd (ACA-6501 [3]; dbFP, multiplied by 2 to correct for antibody bivalency): 6.32

Structure (SMILES): CC(C)C[C@@H]1NC(=O)[C@H](CC(C)C)NC(=O)[C@H](CC(C)C)NC(=O)[C@@H](NC(=O)[C@@H]2CCCN2)CSSC[C@@H](C(=O)N2CCC[C@H]2C(=O)NCC(=O)O)NC(=O)[C@H](CCCNC(=N)N)NC(=O)[C@H](CC(=O)O)NC(=O)[C@@H]2CCCN2C(=O)[C@H](C)NC1=O [peptide 139] (H-PCLLLAPDRCPG-OH; disulfide 2-10)
- amount of peptide producing 50% inhibition of binding of ACA-6501 aPL antibody to tetravalent peptide ACA-6501/3B10 (ACA-6501 aPL antibody): 6.9 µg

Structure (SMILES): CC(C)C[C@@H]1NC(=O)[C@H](CC(C)C)NC(=O)[C@H](CC(C)C)NC(=O)[C@@H](NC(=O)[C@@H]2CCCN2C(=O)CN)CSSC[C@@H](C(=O)N2CCC[C@H]2C(=O)NCC(=O)O)NC(=O)[C@H](CCCNC(=N)N)NC(=O)[C@H](CC(=O)O)NC(=O)[C@@H]2CCCN2C(=O)[C@H](C)NC1=O [peptide 142] (H-GPCLLLAPDRCPG-OH; disulfide 3-11)
- amount of peptide producing 50% inhibition of binding of ACA-6501 aPL antibody to tetravalent peptide ACA-6501/3B10 (ACA-6501 aPL antibody): 0.7 µg

Structure (SMILES): CC(C)C[C@@H]1NC(=O)[C@H](CC(C)C)NC(=O)[C@H](CC(C)C)NC(=O)[C@@H](NC(=O)[C@@H]2CCCN2C(=O)CNC(=O)[C@H](C)N)CSSC[C@@H](C(=O)N2CCC[C@H]2C(=O)NCC(=O)O)NC(=O)[C@H](CCCNC(=N)N)NC(=O)[C@H](CC(=O)O)NC(=O)[C@@H]2CCCN2C(=O)[C@H](C)NC1=O [peptide 143] (H-AGPCLLLAPDRCPG-OH; disulfide 4-12)
- amount of peptide producing 50% inhibition of binding of ACA-6501 aPL antibody to tetravalent peptide ACA-6501/3B10 (ACA-6501 aPL antibody): 0.9 µg
